The values below come from US9283222B2 (priority 2006, dated 2016).

Structures are written as SMILES.

For the assay, the target named is Recombinant Human Poly(ADP-Ribose) Polymerase (PARP), PARP-1 (Homo sapiens (Human), UniProt P09874). Particulars: read-out: PARP-1 (Ki); Table 1; text calls the values EC50s.
Sequence of Recombinant Human Poly(ADP-Ribose) Polymerase (PARP), PARP-1 (P09874 whole entry): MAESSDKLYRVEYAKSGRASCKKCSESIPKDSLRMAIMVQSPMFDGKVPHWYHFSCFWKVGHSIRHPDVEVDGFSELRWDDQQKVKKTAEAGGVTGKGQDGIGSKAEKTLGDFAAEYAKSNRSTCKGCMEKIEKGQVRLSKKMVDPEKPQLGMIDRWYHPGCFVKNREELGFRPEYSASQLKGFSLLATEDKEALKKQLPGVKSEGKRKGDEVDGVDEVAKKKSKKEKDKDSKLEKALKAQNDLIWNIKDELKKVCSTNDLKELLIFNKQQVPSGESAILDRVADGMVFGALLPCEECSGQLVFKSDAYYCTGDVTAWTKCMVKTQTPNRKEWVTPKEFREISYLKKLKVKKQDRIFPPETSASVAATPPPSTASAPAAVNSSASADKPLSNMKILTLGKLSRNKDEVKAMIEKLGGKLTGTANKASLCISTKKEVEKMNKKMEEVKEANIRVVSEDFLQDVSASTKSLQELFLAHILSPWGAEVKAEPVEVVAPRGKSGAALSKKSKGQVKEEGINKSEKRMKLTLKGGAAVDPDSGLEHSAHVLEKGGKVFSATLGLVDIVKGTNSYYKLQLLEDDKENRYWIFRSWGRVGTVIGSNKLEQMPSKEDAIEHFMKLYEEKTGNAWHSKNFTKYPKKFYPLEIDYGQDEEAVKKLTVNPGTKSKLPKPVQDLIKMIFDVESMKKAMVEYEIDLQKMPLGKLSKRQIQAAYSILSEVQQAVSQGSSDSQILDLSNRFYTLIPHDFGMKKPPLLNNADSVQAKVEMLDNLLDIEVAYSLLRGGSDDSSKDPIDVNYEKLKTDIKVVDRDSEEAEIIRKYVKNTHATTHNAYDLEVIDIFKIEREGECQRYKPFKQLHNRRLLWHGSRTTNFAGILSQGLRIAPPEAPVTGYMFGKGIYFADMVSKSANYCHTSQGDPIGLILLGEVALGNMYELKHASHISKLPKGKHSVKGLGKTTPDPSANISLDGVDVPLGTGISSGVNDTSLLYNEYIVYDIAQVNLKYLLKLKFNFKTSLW

In general, Ki refers to a measure of affinity in units of concentration, obtained from inhibition or displacement. As to `O=C(Nc1ccc2c(c1)OCCO2)c1cccc(Cc2n[nH]c(=O)c3c2CCCC3)c1` [Example 358, N-2,3-dihydro-1,4-benzodioxin-6-yl-3-((4-oxo-3,4,5,6,7,8-hexahydrophthalazin-1-yl)methyl)benzamide], the Ki turned out to be 66 nM. For the compound `COc1cc(OC)c(NC(=O)c2cccc(Cc3n[nH]c(=O)c4c3CCCC4)c2)cc1Cl` [Example 359, N-(5-chloro-2,4-dimethoxyphenyl)-3-((4-oxo-3,4,5,6,7,8-hexahydrophthalazin-1-yl)methyl)benzamide], the Ki stood at 151 nM. Turning to `CSc1cccc(NC(=O)c2cccc(Cc3n[nH]c(=O)c4c3CCCC4)c2)c1` [Example 360, N-(3-(methylthio)phenyl)-3-((4-oxo-3,4,5,6,7,8-hexahydrophthalazin-1-yl)methyl)benzamide], the Ki was found to be 94 nM. As for `CSc1ccc(NC(=O)c2cccc(Cc3n[nH]c(=O)c4c3CCCC4)c2)cc1` [Example 361, N-(4-(methylthio)phenyl)-3-((4-oxo-3,4,5,6,7,8-hexahydrophthalazin-1-yl)methyl)benzamide], the Ki stood at 76 nM. `O=C(Nc1ccc(N2CCCCC2)cc1)c1cccc(Cc2n[nH]c(=O)c3c2CCCC3)c1` [Example 362, 3-((4-oxo-3,4,5,6,7,8-hexahydrophthalazin-1-yl)methyl)-N-(4-piperidin-1-ylphenyl)benzamide]: the Ki came to 185 nM.

For the compound `O=C(Nc1ccc(N2CCOCC2)cc1)c1cccc(Cc2n[nH]c(=O)c3c2CCCC3)c1` [Example 363, N-(4-morpholin-4-ylphenyl)-3-((4-oxo-3,4,5,6,7,8-hexahydrophthalazin-1-yl)methyl)benzamide], the Ki amounted to 132 nM. Consider `O=C(Nc1ccccc1Nc1ccccc1)c1cccc(Cc2n[nH]c(=O)c3c2CCCC3)c1` [Example 364, N-(2-anilinophenyl)-3-((4-oxo-3,4,5,6,7,8-hexahydrophthalazin-1-yl)methyl)benzamide], for which the Ki was 316 nM. For `COc1ccc(Nc2ccc(NC(=O)c3cccc(Cc4n[nH]c(=O)c5c4CCCC5)c3)cc2)cc1` [Example 365, N-(4-((4-methoxyphenyl)amino)phenyl)-3-((4-oxo-3,4,5,6,7,8-hexahydrophthalazin-1-yl)methyl)benzamide] the value was 120 nM; for `O=C(Nc1ccc2ncccc2c1)c1cccc(Cc2n[nH]c(=O)c3c2CCCC3)c1` [Example 366, 3-((4-oxo-3,4,5,6,7,8-hexahydrophthalazin-1-yl)methyl)-N-quinolin-6-ylbenzamide], 23 nM. As for `O=C(Nc1cccc2c(O)cccc12)c1cccc(Cc2n[nH]c(=O)c3c2CCCC3)c1` [Example 367, N-(5-hydroxy-1-naphthyl)-3-((4-oxo-3,4,5,6,7,8-hexahydrophthalazin-1-yl)methyl)benzamide], the Ki stood at 45 nM. In the case of `O=C(Nc1ccc2cn[nH]c2c1)c1cccc(Cc2n[nH]c(=O)c3c2CCCC3)c1` [Example 368, N-1H-indazol-6-yl-3-((4-oxo-3,4,5,6,7,8-hexahydrophthalazin-1-yl)methyl)benzamide], the Ki came to 56 nM. Take `O=C1CC[C@@H]2COc3ccc(Cc4n[nH]c(=O)c5c4CCCC5)cc3N12` [Example 371]: the Ki turned out to be 14 nM. For `O=C(NCCc1ccccc1)c1cccc(Cc2n[nH]c(=O)c3c2CCCC3)c1` [Example 375, 3-((4-oxo-3,4,5,6,7,8-hexahydrophthalazin-1-yl)methyl)-N-(2-phenylethyl)benzamide], the Ki is 51 nM.

As to `Cc1ccccc1CCNC(=O)c1cccc(Cc2n[nH]c(=O)c3c2CCCC3)c1` [Example 376, N-(2-(2-methylphenyl)ethyl)-3-((4-oxo-3,4,5,6,7,8-hexahydrophthalazin-1-yl)methyl)benzamide], the Ki turned out to be 173 nM. As for `Cc1cccc(CCNC(=O)c2cccc(Cc3n[nH]c(=O)c4c3CCCC4)c2)c1` [Example 377, N-(2-(3-methylphenyl)ethyl)-3-((4-oxo-3,4,5,6,7,8-hexahydrophthalazin-1-yl)methyl)benzamide], the inhibition constant Ki turned out to be 42 nM. Take `Cc1ccc(CCNC(=O)c2cccc(Cc3n[nH]c(=O)c4c3CCCC4)c2)cc1` [Example 378, N-(2-(4-methylphenyl)ethyl)-3-((4-oxo-3,4,5,6,7,8-hexahydrophthalazin-1-yl)methyl)benzamide]: the Ki was 28 nM.

For the compound `O=C(NCCc1ccccn1)c1cccc(Cc2n[nH]c(=O)c3c2CCCC3)c1` [Example 379, 3-((4-oxo-3,4,5,6,7,8-hexahydrophthalazin-1-yl)methyl)-N-(2-pyridin-2-ylethyl)benzamide], the Ki was found to be 20 nM.

On to `O=C(NCCc1cccnc1)c1cccc(Cc2n[nH]c(=O)c3c2CCCC3)c1` [Example 380, 3-((4-oxo-3,4,5,6,7,8-hexahydrophthalazin-1-yl)methyl)-N-(2-pyridin-3-ylethyl)benzamide], for which the Ki came out at 71 nM. As to `O=C(NCCc1ccncc1)c1cccc(Cc2n[nH]c(=O)c3c2CCCC3)c1` [Example 381, 3-((4-oxo-3,4,5,6,7,8-hexahydrophthalazin-1-yl)methyl)-N-(2-pyridin-4-ylethyl)benzamide], the Ki is 67 nM. For the compound `COc1ccccc1CCNC(=O)c1cccc(Cc2n[nH]c(=O)c3c2CCCC3)c1` [Example 382, N-(2-(2-methoxyphenyl)ethyl)-3-((4-oxo-3,4,5,6,7,8-hexahydrophthalazin-1-yl)methyl)benzamide], the Ki is 79 nM. Consider `COc1cccc(CCNC(=O)c2cccc(Cc3n[nH]c(=O)c4c3CCCC4)c2)c1` [Example 383, N-(2-(3-methoxyphenyl)ethyl)-3-((4-oxo-3,4,5,6,7,8-hexahydrophthalazin-1-yl)methyl)benzamide], for which the Ki was 44 nM.

Consider `COc1ccc(CCNC(=O)c2cccc(Cc3n[nH]c(=O)c4c3CCCC4)c2)cc1` [Example 384, N-(2-(4-methoxyphenyl)ethyl)-3-((4-oxo-3,4,5,6,7,8-hexahydrophthalazin-1-yl)methyl)benzamide], for which the Ki was 40 nM. In the case of `O=C(NCCc1ccccc1F)c1cccc(Cc2n[nH]c(=O)c3c2CCCC3)c1` [Example 385, N-(2-(2-fluorophenyl)ethyl)-3-((4-oxo-3,4,5,6,7,8-hexahydrophthalazin-1-yl)methyl)benzamide], the Ki amounted to 42 nM. With `O=C(NCCc1cccc(F)c1)c1cccc(Cc2n[nH]c(=O)c3c2CCCC3)c1` [Example 386, N-(2-(3-fluorophenyl)ethyl)-3-((4-oxo-3,4,5,6,7,8-hexahydrophthalazin-1-yl)methyl)benzamide], the Ki was 33 nM.

On to `O=C(NCCc1ccc(F)cc1)c1cccc(Cc2n[nH]c(=O)c3c2CCCC3)c1` [Example 387, N-(2-(4-fluorophenyl)ethyl)-3-((4-oxo-3,4,5,6,7,8-hexahydrophthalazin-1-yl)methyl)benzamide], for which the Ki was 44 nM.

Consider `O=C(NCCc1ccccc1Cl)c1cccc(Cc2n[nH]c(=O)c3c2CCCC3)c1` [Example 388, N-(2-(2-chlorophenyl)ethyl)-3-((4-oxo-3,4,5,6,7,8-hexahydrophthalazin-1-yl)methyl)benzamide], for which the inhibitory constant (Ki) is 88 nM. As to `O=C(NCCc1cccc(Cl)c1)c1cccc(Cc2n[nH]c(=O)c3c2CCCC3)c1` [Example 389, N-(2-(3-chlorophenyl)ethyl)-3-((4-oxo-3,4,5,6,7,8-hexahydrophthalazin-1-yl)methyl)benzamide], the Ki was 48 nM. `O=C(NCCc1ccc(Cl)cc1)c1cccc(Cc2n[nH]c(=O)c3c2CCCC3)c1` [Example 390, N-(2-(4-chlorophenyl)ethyl)-3-((4-oxo-3,4,5,6,7,8-hexahydrophthalazin-1-yl)methyl)benzamide]: the Ki came to 31 nM.

In the case of `O=C(NCCc1ccc(-c2ccccc2)cc1)c1cccc(Cc2n[nH]c(=O)c3c2CCCC3)c1` [Example 393, N-(2-(1,1′-biphenyl-4-yl)ethyl)-3-((4-oxo-3,4,5,6,7,8-hexahydrophthalazin-1-yl)methyl)benzamide], the Ki was 70 nM. For `O=C(NCCc1cccc(C(F)(F)F)c1)c1cccc(Cc2n[nH]c(=O)c3c2CCCC3)c1` [Example 394, 3-((4-oxo-3,4,5,6,7,8-hexahydrophthalazin-1-yl)methyl)-N-(2-(3-(trifluoromethyl)phenyl)ethyl)benzamide] the value was 22 nM.

Turning to `O=C(NCCc1ccc(C(F)(F)F)cc1)c1cccc(Cc2n[nH]c(=O)c3c2CCCC3)c1` [Example 395, 3-((4-oxo-3,4,5,6,7,8-hexahydrophthalazin-1-yl)methyl)-N-(2-(4-(trifluoromethyl)phenyl)ethyl)benzamide], the Ki came to 38 nM. In the case of `O=C(NCCc1ccc(Oc2ccccc2)cc1)c1cccc(Cc2n[nH]c(=O)c3c2CCCC3)c1` [Example 396, 3-((4-oxo-3,4,5,6,7,8-hexahydrophthalazin-1-yl)methyl)-N-(2-(4-phenoxyphenyl)ethyl)benzamide], the Ki was 83 nM. For `Cc1ccc(CCNC(=O)c2cccc(Cc3n[nH]c(=O)c4c3CCCC4)c2)cc1C` [Example 397], the Ki amounted to 50 nM. Then `Cc1ccc(CCNC(=O)c2cccc(Cc3n[nH]c(=O)c4c3CCCC4)c2)c(C)c1` [Example 398, N-(2-(2,4-dimethylphenyl)ethyl)-3-((4-oxo-3,4,5,6,7,8-hexahydrophthalazin-1-yl)methyl)benzamide], with 82 nM. Turning to `Cc1ccc(C)c(CCNC(=O)c2cccc(Cc3n[nH]c(=O)c4c3CCCC4)c2)c1` [Example 399, N-(2-(2,5-dimethylphenyl)ethyl)-3-((4-oxo-3,4,5,6,7,8-hexahydrophthalazin-1-yl)methyl)benzamide], the Ki turned out to be 65 nM. Take `CCOc1cc(CCNC(=O)c2cccc(Cc3n[nH]c(=O)c4c3CCCC4)c2)ccc1OC` [Example 400, N-(2-(3-ethoxy-4-methoxyphenyl)ethyl)-3-((4-oxo-3,4,5,6,7,8-hexahydrophthalazin-1-yl)methyl)benzamide]: the Ki was found to be 22 nM. Turning to `CCOc1ccc(CCNC(=O)c2cccc(Cc3n[nH]c(=O)c4c3CCCC4)c2)cc1OC` [Example 401, N-(2-(4-ethoxy-3-methoxyphenyl)ethyl)-3-((4-oxo-3,4,5,6,7,8-hexahydrophthalazin-1-yl)methyl)benzamide], the Ki stood at 48 nM.
